biological target: T1, human D3 dopamine receptor (Homo sapiens, UniProt P35462); test: Radioligand binding assay ([3H]-spiperone) on membranes of HEK-293 EBNA cells expressing human D3 receptor; conditions: [3H]-spiperone approx. 0.5 nM, 1 h at RT, cloned human D3 in HEK-293 EBNA membranes; Ki by Cheng-Prusoff
T1 construct: expressed in transfected cells; host or cells: HEK-293 EBNA cells (transient transfection; membrane preparation)
Experimental: The ability of the compounds to bind to the D3 receptors was determined using radioligand binding to cloned receptors selectively expressed in HEK-293 EBNA cells.
HEK-293 EBNA cells were transiently transfected with expression plasmids encoding for the human D3 dopamine receptor. The cells were harvested 48 h post-transfection, washed three times with cold PBS and stored at −80° C. prior to use. The pellet was suspended in cold 50 mM
Tris-HCl buffer containing 10 mM EDTA (pH 7.4) and homogenized with a Polytron (Kinematica AG, Basel, Switzerland) for 20-30 sec at 12.000 rpm. After centrifugation at 48.000×g for 30 min at 4° C., the pellet was resuspended in cold 10 mM Tris-HCl buffer containing 0.1 mM EDTA (pH 7.4), homogenized, and centrifuged as above. This pellet was further resuspended in a smaller volume of ice cold 10 mM Tris-HCl buffer containing 0.1 mM EDTA (pH 7.4) and homogenized with a Polytron for 20-30 sec at 12.000 rpm. The protein content of this homogenate was determined with the Bio-Rad (Bradford) Protein Assay (Biorad Laboratories GmbH, München, Germany) according to the instructions of the manufacturer using gamma globulin as the standard.
This homogenate was stored at −80° C. in aliquots and thawed immediately prior to use.
Aliquots of membrane preparations were thawed at RT, resuspended in assay buffer (50 mM Tris-HCl, 120 mM NaCl, 5 mM MgCl2, 1 mM EDTA, 5 mM KCl, 1.5 mM CaCl2, pH=7.4), homogenized with a Polytron for 20-30 sec at 12.000 rpm and adjusted to a final concentration of approximately 7.5 μg protein/well.
The binding affinity (Ki) of the compounds was determined using radioligand binding. Membranes were incubated in a total volume of 200 μl with a fixed concentration of radioligand (final concentration approximately 0.5 nM [^3H]-spiperone) and ten concentrations of test compound in ranging between 10 μM-0.1 nM for 1 h at RT. At the end of the incubation, the reaction mixtures were filtered on to unifilter 96-well white microplates with bonded GF/C filters (Packard BioScience, Zurich, Switzerland; preincubated for 1 h in 0.1% polyethylenimine (PEI) in assay buffer) with a Filtermate 196 harvester (Packard BioScience) and washed 3 times with cold assay buffer. The nonspecific binding was determined with equally composed reaction mixtures in the presence of 10 μM unlabelled spiperone. Per well 45 μl of Microscint 40 (Perkin Elmer, Schwerzenbach, Switzerland) was added, plates for sealed, shaken for 20 min and counted for 3 min on a Topcount Microplate Scintillation Counter (Canberra Packard SA, Zürich, Switzerland) with quenching correction.
The CPM value for each duplicate of a concentration of competing compound was averaged (y1), then the % specific binding was calculated according to the equation (((y1−non-specific)/(total binding-non-specific))×100). Graphs were plotted with the % specific binding using XLfit, a curve fitting program that iteratively plots the data using Levenburg Marquardt algorithm. The single site competition analysis equation used was y=A+((B−A)/(1+((x/C)^D))), where y is the % specific binding, A is the minimum y, B is the maximum y, C is the IC50, x is the log10 of the concentration of the competing compound and D is the slope of the curve (the Hill Coefficient). From these curves the IC50 (inhibition concentration at which 50% specific binding of the radioligand was displaced) and Hill coefficient were determined. The affinity constant (Ki) was calculated using the Cheng-Prusoff equation Ki=(IC50/1+([L]/Kd), where [L] is the concentration of radioligand and Kd is the dissociation constant of the radioligand at the receptor as determined by the saturation isotherm.

T1 sequence (P35462 whole entry): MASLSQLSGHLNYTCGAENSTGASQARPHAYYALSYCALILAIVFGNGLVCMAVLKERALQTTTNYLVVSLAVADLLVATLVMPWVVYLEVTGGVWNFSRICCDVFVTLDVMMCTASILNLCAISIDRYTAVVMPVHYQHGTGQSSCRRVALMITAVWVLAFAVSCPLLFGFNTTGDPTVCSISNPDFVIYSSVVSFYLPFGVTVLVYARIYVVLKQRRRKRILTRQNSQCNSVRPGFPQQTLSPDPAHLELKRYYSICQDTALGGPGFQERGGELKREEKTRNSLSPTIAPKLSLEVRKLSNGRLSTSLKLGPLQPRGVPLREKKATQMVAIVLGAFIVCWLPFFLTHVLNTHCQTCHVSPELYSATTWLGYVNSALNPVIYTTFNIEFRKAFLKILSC

| Ki [nM] | SMILES |
| --- | --- |
| 9.64 | CC(=O)N[C@H]1CC[C@H](CCN2CCN(c3ncc(C(F)(F)F)cc3Cl)CC2)CC1 [Example 1, N-(trans-4-{2-[4-(3-Chloro-5-trifluoromethyl-pyridin-2-yl)-piperazin-1-yl]-ethyl}-cyclohexyl)-acetamide] |
| 5.66 | COCCC(=O)N[C@H]1CC[C@H](CCN2CCN(c3ncc(C(F)(F)F)cc3Cl)CC2)CC1 [Example 2, N-(trans-4-{2-[4-(3-Chloro-5-trifluoromethyl-pyridin-2-yl)-piperazin-1-yl]-ethyl}-cyclohexyl)-3-methoxy-propionamide] |
| 16.8 | CCC(=O)N[C@H]1CC[C@H](CCN2CCN(c3ncc(C(F)(F)F)cc3Cl)CC2)CC1 [Example 3, N-(trans-4-{2-[4-(3-Chloro-5-trifluoromethyl-pyridin-2-yl)-piperazin-1-yl]-ethyl}-cyclohexyl)-propionamide] |
| 16.8 | NC(=O)CC(=O)N[C@H]1CC[C@H](CCN2CCN(c3ncc(C(F)(F)F)cc3Cl)CC2)CC1 [Example 8, N-(trans-4-{2-[4-(3-Chloro-5-trifluoromethyl-pyridin-2-yl)-piperazin-1-yl]-ethyl}-cyclohexyl)-malonamide] |

More lines, now with the values behind:

| SMILES | Ki [nM] |
| --- | --- |
| O=C(CC1CC1)N[C@H]1CC[C@H](CCN2CCN(c3ncc(C(F)(F)F)cc3Cl)CC2)CC1 [Example 4, N-(trans-4-{2-[4-(3-Chloro-5-trifluoromethyl-pyridin-2-yl)-piperazin-1-yl]-ethyl}-cyclohexyl)-2-cyclopropyl-acetamide] | 10.1 |
| CC(=O)N[C@H]1CC[C@H](CCN2CCN(c3ncccc3Cl)CC2)CC1 [Example 5, N-(trans-4-{2-[4-(3-Chloro-pyridin-2-yl)-piperazin-1-yl]-ethyl}-cyclohexyl)-acetamide] | 1.7 |
| CC(=O)N[C@H]1CC[C@H](CCN2CCN(c3ncc(Cl)cc3Cl)CC2)CC1 [Example 6, N-(trans-4-{2-[4-(3,5-Dichloro-pyridin-2-yl)-piperazin-1-yl]-ethyl}-cyclohexyl)-acetamide] | 9.64 |
| CC(=O)N[C@H]1CC[C@H](CCN2CCN(c3ccc(C(F)(F)F)nc3)CC2)CC1 [Example 7, N-(trans-4-{2-[4-(6-Trifluoromethyl-pyridin-3-yl)-piperazin-1-yl]-ethyl}-cyclohexyl)-acetamide] | 5.66 |
| COc1cccnc1N1CCN(CC[C@H]2CC[C@H](NC(C)=O)CC2)CC1 [Example 9, N-(trans-4-{2-[4-(3-Methoxy-pyridin-2-yl)-piperazin-1-yl]-ethyl}-cyclohexyl)-acetamide] | 10.1 |
| CC(=O)N[C@H]1CC[C@H](CCN2CCN(c3ccnc(Cl)c3Cl)CC2)CC1 [Example 10, N-(trans-4-{2-[4-(2,3-Dichloro-pyridin-4-yl)-piperazin-1-yl]-ethyl}-cyclohexyl)-acetamide] | 1.7 |
